Laboratory results taken from patent publication US20240208968A1, “ALPHA V BETA 6 AND ALPHA V BETA 1 INTEGRIN INHIBITORS AND USES THEREOF” (DiCE Molecules SV, Inc., priority 2021, published 2024).
pIC50: −log10 of the molar value. Counter-ions that a name gives are not always drawn.

How the values were obtained:
[1] = target: αvβ1 (Homo sapiens, UniProt P05556+P06756); experiment: Solid Phase Integrin αvβ1 Assay; assay type: binding
Experimental: (§1) The compounds exemplified in this document were tested for their ability to inhibit αvβ1 and αvβ6 in below described solid phase integrin assays.
Solid Phase Integrin αvβ1 Assay
96-well microtiter plates (4 HBX Immulon; Thermo Fisher Scientific, Waltham, MA) were coated with 100 μL/well of 1 μg/mL recombinant TGFb1-LAP in TBS at 4° C., overnight. The coating solution was removed, and plates were blocked with 200 μL/well of blocking and binding buffer (2% BSA/TBST, 1 mM MnCl2) at room temperature for 1 hr. Blocking buffer was removed and 50 μL of binding buffer and testing compounds were added. 50 μL of diluted αvβ1 (0.2 ug/mL in binding buffer) was added to wells (100 μL/well total) for and plates incubated for 90 min at room temperature. Wells were washed thrice with washing buffer (TBS, 0.05% Tween, 1 mM MnCl2) and plates were incubated with 100 μL/well of a 1:12500 dilution of streptavidin-horseradish peroxidase conjugate (Thermo Fisher Scientific) in binding buffer for 20 min at room temperature. Bound protein was detected using the substrate TMB. The IC50 values for testing compounds were calculated by Levenberg-Marquardt four parameter fitting logistics.

[2] = target: αvβ6 (Homo sapiens, UniProt P06756+P18564); experiment: Solid Phase Integrin αvβ6 Assay; assay type: binding
Experimental: as §1
Solid Phase Integrin αvβ6 Assay
96-well microtiter plates (4 HBX Immulon; Thermo Fisher Scientific, Waltham, MA) were coated with 100 μL/well of 1 μg/mL recombinant TGFb1-LAP in TBS at 4° C., overnight. The coating solution was removed, and plates were blocked with 200 μL/well of blocking and binding buffer (2% BSA/TBST, 1 mM MnCl2) at room temperature for 1 hr. Blocking buffer was removed and 50 uL of binding buffer and testing compounds were added. 50 μL of diluted αvβ6 (0.2 μg/mL in binding buffer) was added to wells (100 uL/well total) and plates incubated for 1 hr at room temperature. Wells were washed thrice with washing buffer (TBS, 0.05% Tween, 1 mM MnCl2) and plates were incubated with 100 μL/well of a 1:12500) dilution of streptavidin-horseradish peroxidase conjugate (Thermo Fisher Scientific) in binding buffer for 20 min at room temperature. Bound protein was detected using the substrate TMB. The IC50 values for testing compounds were calculated by Levenberg-Marquardt four parameter fitting logistics.

Chain of αvβ6 (P06756 31-992 limits assumed): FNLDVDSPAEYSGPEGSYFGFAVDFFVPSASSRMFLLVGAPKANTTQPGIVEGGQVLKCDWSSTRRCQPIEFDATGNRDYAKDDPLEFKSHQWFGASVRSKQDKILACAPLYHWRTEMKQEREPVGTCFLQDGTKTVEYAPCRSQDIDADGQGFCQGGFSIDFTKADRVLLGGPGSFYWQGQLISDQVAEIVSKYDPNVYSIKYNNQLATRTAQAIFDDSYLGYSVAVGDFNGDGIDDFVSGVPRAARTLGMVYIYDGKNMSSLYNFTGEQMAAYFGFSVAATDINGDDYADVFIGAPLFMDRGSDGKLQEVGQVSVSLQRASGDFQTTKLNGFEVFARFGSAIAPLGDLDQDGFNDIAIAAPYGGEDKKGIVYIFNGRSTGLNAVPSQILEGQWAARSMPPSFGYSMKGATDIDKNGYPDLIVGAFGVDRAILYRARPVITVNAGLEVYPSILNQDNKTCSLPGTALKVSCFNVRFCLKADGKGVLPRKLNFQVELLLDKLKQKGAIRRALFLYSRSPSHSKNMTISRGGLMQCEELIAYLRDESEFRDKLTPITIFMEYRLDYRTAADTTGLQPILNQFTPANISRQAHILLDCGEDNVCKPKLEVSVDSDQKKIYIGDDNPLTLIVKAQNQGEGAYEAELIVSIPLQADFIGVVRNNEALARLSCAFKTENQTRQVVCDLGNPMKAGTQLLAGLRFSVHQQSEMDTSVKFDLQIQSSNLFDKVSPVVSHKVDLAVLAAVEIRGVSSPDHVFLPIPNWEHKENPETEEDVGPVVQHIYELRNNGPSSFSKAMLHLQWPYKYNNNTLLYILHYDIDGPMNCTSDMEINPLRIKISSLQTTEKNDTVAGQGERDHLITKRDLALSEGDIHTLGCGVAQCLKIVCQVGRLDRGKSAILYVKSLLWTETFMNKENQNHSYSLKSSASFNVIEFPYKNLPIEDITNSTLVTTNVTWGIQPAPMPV
Chain of αvβ6 (P18564 22-707 limits assumed): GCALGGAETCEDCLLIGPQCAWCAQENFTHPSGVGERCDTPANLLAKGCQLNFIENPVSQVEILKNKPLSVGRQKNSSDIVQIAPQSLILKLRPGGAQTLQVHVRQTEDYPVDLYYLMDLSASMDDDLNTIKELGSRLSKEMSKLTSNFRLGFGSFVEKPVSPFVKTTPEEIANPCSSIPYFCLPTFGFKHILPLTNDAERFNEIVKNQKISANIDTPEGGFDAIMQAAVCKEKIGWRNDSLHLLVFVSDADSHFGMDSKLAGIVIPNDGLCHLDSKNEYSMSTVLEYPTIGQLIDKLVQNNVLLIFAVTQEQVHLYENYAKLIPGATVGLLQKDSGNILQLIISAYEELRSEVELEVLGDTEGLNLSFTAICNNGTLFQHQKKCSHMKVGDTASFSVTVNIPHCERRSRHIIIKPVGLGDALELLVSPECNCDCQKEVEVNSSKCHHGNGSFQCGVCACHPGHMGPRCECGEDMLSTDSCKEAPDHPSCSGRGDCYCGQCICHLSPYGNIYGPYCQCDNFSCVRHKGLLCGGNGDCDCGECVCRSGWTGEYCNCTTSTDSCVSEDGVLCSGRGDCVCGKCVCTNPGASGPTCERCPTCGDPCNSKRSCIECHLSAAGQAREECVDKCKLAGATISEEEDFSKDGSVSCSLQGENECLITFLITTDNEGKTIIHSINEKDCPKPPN
Chain of αvβ1 (P06756 31-992 limits assumed): as the sequence (P06756 31-992 limits assumed) above
Chain of αvβ1 (P05556 21-728 limits assumed): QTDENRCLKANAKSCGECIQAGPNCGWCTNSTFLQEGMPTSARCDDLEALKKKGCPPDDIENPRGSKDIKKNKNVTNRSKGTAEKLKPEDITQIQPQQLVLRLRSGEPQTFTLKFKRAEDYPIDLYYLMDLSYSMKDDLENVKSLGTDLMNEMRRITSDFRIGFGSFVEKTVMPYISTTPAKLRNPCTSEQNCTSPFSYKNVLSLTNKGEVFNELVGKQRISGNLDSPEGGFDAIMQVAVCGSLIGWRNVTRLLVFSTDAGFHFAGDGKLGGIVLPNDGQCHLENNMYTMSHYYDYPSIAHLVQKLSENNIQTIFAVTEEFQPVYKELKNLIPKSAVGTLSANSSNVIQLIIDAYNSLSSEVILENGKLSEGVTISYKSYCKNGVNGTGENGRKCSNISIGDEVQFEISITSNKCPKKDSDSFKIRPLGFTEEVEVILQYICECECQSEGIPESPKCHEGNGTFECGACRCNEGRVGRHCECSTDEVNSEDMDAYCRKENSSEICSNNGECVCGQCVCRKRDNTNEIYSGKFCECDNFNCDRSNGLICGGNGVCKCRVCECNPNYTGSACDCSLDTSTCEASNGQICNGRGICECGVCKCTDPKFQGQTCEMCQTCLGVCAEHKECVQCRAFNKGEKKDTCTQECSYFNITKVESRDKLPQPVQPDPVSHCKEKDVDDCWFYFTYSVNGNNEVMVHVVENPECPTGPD

SMILES	pIC50 [1]	pIC50 [2]
O=C(O)C[C@@H](NC(=O)[C@@H]1CCCN(CCCc2ccc3c(n2)NCCC3)C1)c1cccc(Oc2ccccc2)c1 [Compound 209-B, 3-(3-phenoxyphenyl)-3-((R)-1-(3-(5,6,7,8-tetrahydro-1,8-naphthyridin-2-yl)propyl)piperidine-3-carboxamido)propanoic acid]	< 6.00	6.00 to 7.00
COc1ccc(C(C)C)c(C(CC(=O)O)NC(=O)[C@@H]2CCCN(CCCc3ccc4c(n3)NCCC4)C2)c1 (stereo partly drawn) [Compound 210, 3-(2-isopropyl-5-methoxyphenyl)-3-((R)-1-(3-(5,6,7,8-tetrahydro-1,8-naphthyridin-2-yl)propyl)piperidine-3-carboxamido)propanoic acid hydrochloride]	6.00 to 7.00	6.00 to 7.00
O=C(O)C[C@H](NC(=O)[C@@H]1CCCN(CCCc2ccc3c(n2)NCCC3)C1)c1cccc2c1CCC2 [Compound 211-A, 3-(2,3-dihydro-1H-inden-4-yl)-3-((R)-1-(3-(5,6,7,8-tetrahydro-1,8-naphthyridin-2-yl)propyl)piperidine-3-carboxamido)propanoic acid]	> 7.00	> 7.00
O=C(O)C[C@@H](NC(=O)[C@@H]1CCCN(CCCc2ccc3c(n2)NCCC3)C1)c1cccc2c1CCC2 [Compound 211-B, 3-(2,3-dihydro-1H-inden-4-yl)-3-((R)-1-(3-(5,6,7,8-tetrahydro-1,8-naphthyridin-2-yl)propyl)piperidine-3-carboxamido)propanoic acid]	< 6.00	6.00 to 7.00
O=C(O)C[C@H](NC(=O)[C@@H]1CCCN(CCCc2ccc3c(n2)NCCC3)C1)c1cccc2c1CCCC2 [Compound 212-A, 3-((R)-1-(3-(5,6,7,8-tetrahydro-1,8-naphthyridin-2-yl)propyl)piperidine-3-carboxamido)-3-(5,6,7,8-tetrahydronaphthalen-1-yl)propanoic acid]	< 6.00	< 6.00
O=C(O)C[C@@H](NC(=O)[C@@H]1CCCN(CCCc2ccc3c(n2)NCCC3)C1)c1cccc2c1CCCC2 [Compound 212-B, 3-((R)-1-(3-(5,6,7,8-tetrahydro-1,8-naphthyridin-2-yl)propyl)piperidine-3-carboxamido)-3-(5,6,7,8-tetrahydronaphthalen-1-yl)propanoic acid]	6.00 to 7.00	> 7.00
O=C(O)CC(NC(=O)[C@@H]1CCCN(CCCc2ccc3c(n2)NCCC3)C1)c1ccc2c(c1)CCO2 (stereo partly drawn) [Compound 213, 3-(2,3-dihydrobenzofuran-5-yl)-3-((R)-1-(3-(5,6,7,8-tetrahydro-1,8-naphthyridin-2-yl)propyl)piperidine-3-carboxamido)propanoic acid hydrochloride]	> 7.00	> 7.00
O=C(O)C[C@H](NC(=O)[C@@H]1CCCN(CCCc2ccc3c(n2)NCCC3)C1)c1ccc2c(c1)OCO2 [Compound 214, (S)-3-(benzo[d][1,3]dioxol-5-yl)-3-((R)-1-(3-(5,6,7,8-tetrahydro-1,8-naphthyridin-2-yl)propyl)piperidine-3-carboxamido)propanoic acid]	> 7.00	> 7.00
O=C(O)C[C@H](NC(=O)[C@@H]1CCCN(CCCc2ccc3c(n2)NCCC3)C1)c1ccc2nccnc2c1 [Compound 215-A, 3-(quinoxalin-6-yl)-3-((R)-1-(3-(5,6,7,8-tetrahydro-1,8-naphthyridin-2-yl)propyl)piperidine-3-carboxamido)propanoic acid]	> 7.00	> 7.00
O=C(O)C[C@@H](NC(=O)[C@@H]1CCCN(CCCc2ccc3c(n2)NCCC3)C1)c1ccc2nccnc2c1 [Compound 215-B, 3-(quinoxalin-6-yl)-3-((R)-1-(3-(5,6,7,8-tetrahydro-1,8-naphthyridin-2-yl)propyl)piperidine-3-carboxamido)propanoic acid]	> 7.00	> 7.00
O=C(O)C[C@H](NC(=O)[C@@H]1CCCN(CCCc2ccc3c(n2)NCCC3)C1)c1cccc2c1CCCO2 [Compound 216-A, 3-(chroman-5-yl)-3-((R)-1-(3-(5,6,7,8-tetrahydro-1,8-naphthyridin-2-yl)propyl)piperidine-3-carboxamido)propanoic acid]	6.00 to 7.00	> 7.00
O=C(O)C[C@@H](NC(=O)[C@@H]1CCCN(CCCc2ccc3c(n2)NCCC3)C1)c1cccc2c1CCCO2 [Compound 216-B, 3-(chroman-5-yl)-3-((R)-1-(3-(5,6,7,8-tetrahydro-1,8-naphthyridin-2-yl)propyl)piperidine-3-carboxamido)propanoic acid]	< 6.00	< 6.00
O=C(O)CC(NC(=O)[C@@H]1CCCN(CCCc2ccc3c(n2)NCCC3)C1)c1ccc2c(c1)OCC2 (stereo partly drawn) [Compound 217, 3-(2,3-dihydrobenzofuran-6-yl)-3-((R)-1-(3-(5,6,7,8-tetrahydro-1,8-naphthyridin-2-yl)propyl)piperidine-3-carboxamido)propanoic acid hydrochloride]	> 7.00	> 7.00
O=C(O)CC(NC(=O)[C@@H]1CCCN(CCCc2ccc3c(n2)NCCC3)C1)c1cccc2c1OCO2 (stereo partly drawn) [Compound 218, 3-(benzo[d][1,3]dioxol-4-yl-3-((R)-1-(3-(5,6,7,8-tetrahydro-1,8-naphthyridin-2-yl)propyl)piperidine-3-carboxamido)propanoic acid hydrochloride]	> 7.00	> 7.00
O=C(O)CC(NC(=O)[C@@H]1CCCN(CCCc2ccc3c(n2)NCCC3)C1)c1cccc2c1CCO2 (stereo partly drawn) [Compound 219, 3-(2,3-dihydrobenzofuran-4-yl)-3-((R)-1-(3-(5,6,7,8-tetrahydro-1,8-naphthyridin-2-yl)propyl)piperidine-3-carboxamido)propanoic acid hydrochloride]	> 7.00	> 7.00
O=C(O)C[C@H](NC(=O)[C@@H]1CCCN(CCCc2ccc3c(n2)NCCC3)C1)c1cc(Cl)cc(Cl)c1 [Compound 220, (S)-3-(3,5-dichlorophenyl)-3-((R)-1-(3-(5,6,7,8-tetrahydro-1,8-naphthyridin-2-yl)propyl)piperidine-3-carboxamido)propanoic acid]	> 7.00	> 7.00
COc1ccc([C@H](CC(=O)O)NC(=O)[C@@H]2CCCN(CCCc3ccc4c(n3)NCCC4)C2)cn1 [Compound 221, (S)-3-(6-methoxypyridin-3-yl)-3-((R)-1-(3-(5,6,7,8-tetrahydro-1,8-naphthyridin-2-yl)propyl)piperidine-3-carboxamido)propanoic acid hydrochloride]	> 7.00	> 7.00
O=C(O)CC(NC(=O)[C@@H]1CCCN(CCCc2ccc3c(n2)NCCC3)C1)c1cc(Cl)cc(C(F)(F)F)c1 (stereo partly drawn) [Compound 222, 3-(3-chloro-5-(trifluoromethyl)phenyl)-3-((R)-1-(3-(5,6,7,8-tetrahydro-1,8-naphthyridin-2-yl)propyl)piperidine-3-carboxamido)propanoic acid hydrochloride]	> 7.00	> 7.00
O=C(O)CC(NC(=O)[C@@H]1CCCN(CCCc2ccc3c(n2)NCCC3)C1)c1cc(C(F)(F)F)cc(C(F)(F)F)c1 (stereo partly drawn) [Compound 223, 3-(3,5-bis(trifluoromethyl)phenyl)-3-((R)-1-(3-(5,6,7,8-tetrahydro-1,8-naphthyridin-2-yl)propyl)piperidine-3-carboxamido)propanoic acid formic acid]	> 7.00	> 7.00
O=C(O)C[C@H](NC(=O)[C@@H]1CCCN(CCCc2ccc3c(n2)NCCC3)C1)c1cccc(C2CC2)c1 [Compound 224, (S)-3-(3-Cyclopropylphenyl)-3-((R)-1-(3-(5,6,7,8-Tetrahydro-1,8-Naphthyridin-2-YI)Propyl)Piperidine-3-Carboxamido)Propanoic Acid hydrochloride]	> 7.00	> 7.00
Cc1cc(C)n(-c2cccc([C@H](CC(=O)O)NC(=O)[C@@H]3CCCN(CCCc4ccc5c(n4)NCCC5)C3)c2)n1 [Compound 225, (S)-3-(3-(3,5-dimethyl-1H-pyrazol-1-yl)phenyl)-3-((R)-1-(3-(5,6,7,8-tetrahydro-1,8-naphthyridin-2-yl)propyl)piperidine-3-carboxamido)propanoic acid hydrochloride]	> 7.00	> 7.00
Cc1cnn(C)c1-c1cccc([C@H](CC(=O)O)NC(=O)[C@@H]2CCCN(CCCc3ccc4c(n3)NCCC4)C2)c1 [Compound 226, (S)-3-(3-(1,4-dimethyl-1H-pyrazol-5-yl)phenyl)-3-((R)-1-(3-(5,6,7,8-tetrahydro-1,8-naphthyridin-2-yl)propyl)piperidine-3-carboxamido)propanoic acid hydrochloride]	> 7.00	> 7.00
